Source: patent US7297551B2, “Recombinant proteins and peptides for endotoxin biosensors, endotoxin removal, and anti-microbial and anti-endotoxin therapeutics” (priority 1998, dated 2007)

Legend:
[1] = target: T1, SSCrFCES (LPS-binding domain of C. rotundicauda Factor C, rFCES amino acids 29-330, numbered as in SEQ ID NO: 4) (Carcinoscorpius rotundicauda, UniProt Q26422); test: Surface plasmon resonance binding to immobilized lipid A; details: 400 ng/100 ul SSCrFCES
T1 construct: rFCES (amino acids 29-330); made in house; host or cells: Drosophila S2 cells
T1 sequence (Q26422 29-330): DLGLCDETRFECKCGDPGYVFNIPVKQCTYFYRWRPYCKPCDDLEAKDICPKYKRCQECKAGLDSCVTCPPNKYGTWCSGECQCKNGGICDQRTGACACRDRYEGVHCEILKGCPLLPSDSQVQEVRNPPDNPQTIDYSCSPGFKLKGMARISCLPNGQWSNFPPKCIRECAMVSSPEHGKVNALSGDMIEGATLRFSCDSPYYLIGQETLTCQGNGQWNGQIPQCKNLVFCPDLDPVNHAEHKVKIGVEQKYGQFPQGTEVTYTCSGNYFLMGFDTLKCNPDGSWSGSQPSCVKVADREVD
Protocol: Recognition of lipid A by the abovenamed secreted recombinant proteins and peptides was, performed with a BIAcore X™ biosensor instrument and an HPA sensor chip. Briefly, lipid A at 0.5 mg/ml in PBS was immobilized to a HPA sensor chip (Pharmacia) according to the manufacturer's specification. In all experiments, pyrogen-free PBS was used as the running buffer at a flow rate of 10 μl/min.
With purified SSCrFCES, 4 μg/ml was injected into the flow cell at a rate of 10 μl/min, and the binding response was measured as a function of time. Following injection of SSCrFCES, a solution of INDIA™ HisProbe™-HRP antibody, diluted in PBS to 400 μg/ml, was also injected to cause a shift in SPR in order to further confirm that SSCrFCES binds to lipid A. For regeneration, 100 mM of NaOH solution was injected for 5 minutes. Similar lipid A binding analysis was carried out with SSCrFCsushi-GFP fusion proteins.

BPI pep85-99 (15 mer) = details: de Haas et al., 1998; ligand cell empty; read-out: Equilibrium constant; cited from earlier work
[2] = target: T2, rFC (full-length recombinant C. rotundicauda Factor C, CrFC21, from P. pastoris) (Carcinoscorpius rotundicauda, UniProt Q26422); test: BIACORE X binding to immobilized lipid A; details: partially-pure rFC to lipid A 10:1 on a mass basis
T2 sequence (Q26422 1-1019): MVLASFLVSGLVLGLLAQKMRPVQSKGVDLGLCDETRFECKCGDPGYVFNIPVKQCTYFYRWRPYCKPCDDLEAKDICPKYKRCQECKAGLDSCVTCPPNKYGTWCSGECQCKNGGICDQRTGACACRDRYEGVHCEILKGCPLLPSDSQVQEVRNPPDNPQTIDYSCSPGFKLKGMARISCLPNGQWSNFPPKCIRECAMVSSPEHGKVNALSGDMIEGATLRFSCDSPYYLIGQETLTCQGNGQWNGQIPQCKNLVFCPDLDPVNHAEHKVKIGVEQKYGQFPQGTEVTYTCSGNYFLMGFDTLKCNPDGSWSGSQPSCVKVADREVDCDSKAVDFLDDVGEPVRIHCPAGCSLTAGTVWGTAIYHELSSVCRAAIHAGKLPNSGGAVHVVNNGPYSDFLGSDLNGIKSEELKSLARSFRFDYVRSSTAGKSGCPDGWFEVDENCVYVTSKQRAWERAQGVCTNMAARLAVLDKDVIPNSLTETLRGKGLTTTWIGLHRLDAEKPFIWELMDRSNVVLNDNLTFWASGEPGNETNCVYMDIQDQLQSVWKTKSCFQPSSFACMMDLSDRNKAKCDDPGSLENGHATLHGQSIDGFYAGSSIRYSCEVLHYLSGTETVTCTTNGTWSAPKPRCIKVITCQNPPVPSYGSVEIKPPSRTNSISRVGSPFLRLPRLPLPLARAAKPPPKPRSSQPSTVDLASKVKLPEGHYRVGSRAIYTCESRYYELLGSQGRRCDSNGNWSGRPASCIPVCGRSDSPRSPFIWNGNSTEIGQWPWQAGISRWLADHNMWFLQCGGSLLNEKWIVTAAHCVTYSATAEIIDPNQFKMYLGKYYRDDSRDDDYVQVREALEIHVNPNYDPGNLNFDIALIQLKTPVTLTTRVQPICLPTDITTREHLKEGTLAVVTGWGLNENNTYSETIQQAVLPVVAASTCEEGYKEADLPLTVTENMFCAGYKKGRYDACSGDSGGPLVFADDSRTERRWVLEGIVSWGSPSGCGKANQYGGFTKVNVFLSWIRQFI
Protocol: The binding interactions between rFC and immobilized lipid A were monitored using the BIACORE X™ biosensor (Pharmacia Biotech). The BIACORE X™ sensor chip features a flat hydrophobic surface that allows the immobilization of ligand molecules. Thirty microliters of lipid A at 100 μg/ml were immobilized on each sensor chip to form a ligand surface. Biomax™-50 enriched samples of rFC, rFCEE and rFCSN, each at 1 mg/ml were injected at 10 μl/min for 3 min over the ligand surface. After each injection of the recombinant protein samples, the lipid A ligand surface was regenerated using 0.1 M NaOH. The ligand-binding was measured in relative response units (RU) for each sample, and calculated from the difference in RU at the baseline, viz., before injection of sample, and final experimental reading taken after sample injection and a 2-min wash. The percentage binding was thus determined.

## lipid A
[1]
  saturation of lipid A: 92%
BPI pep85-99 (15 mer)
  Kd: 1760 nM
[2]
  net response, lipid A bound: approximately 30%
